Measurements: patent EP0953355A1, “REMEDY FOR AUTOIMMUNE DISEASES” (Sankyo Company, Limited, priority 1996, dated 1997)

Legend:
Lewis rats = assay: Inhibitory effect on bone destruction induced by adjuvant arthritis; format: in vivo; details: for inhibition of bone destruction as compared with the control group / bone destruction compared with the control group: Wilcoxon test; for Bone Destruction Score (points): right hind paw, day 21, maximum score 8, groups of 5; for Bone Destruction Inhibition Rate (%): versus control group
Procedure: The inhibitory effect was determined in a similar manner to that of Winder, et al. (Arthritis Rheum., Vol. 12, p. 472, 1969). Using Lewis rats (females, age 8-10 weeks, body weights: 160-200 g, Japan Charles River) in groups of 5 each, adjuvant (heat-killed Mycobacterium butyricum)was injected intradermally into the right hind paw of each rat at 100 µg/0.05 ml/paw to induce arthritis. The rats were orally administered troglitazone at 0.2%, pioglitazone at 0.05% and BRL-49653 at 0.005%, respectively, by mixing in powdered feed until day 20 taking the day of injection of adjuvant to be day 0. Rats in a control group were given powdered feed only during the same period. The rats were sacrificed on day 21. After excising the right hind paw (the injected paw), soft X-rays were taken of each paw to observe and score the state of bone destruction. Bone destruction was scored by evaluating into 5 ranks consisting of 0, 1, 2, 3 and 4, assigning 0 points in the absence of bone destruction (normal) and increasing scores depending on the state of joint destruction, bone destruction, deformation and osteophyte formation. The worst state of such bone disorders was assigned a score of 4. The bone disorders were scored at two locations, the calcaneus and the location extending from the tarsal bones to the metatarsal bones. Thus, the score for each animal was determined by calculating the total score for the two locations and the maximum score was 8 points.
The inhibitory effect was determined according to the methods of Winder, et al. (Arthritis Rheum., Vol. 12, p. 472, 1969). Using Lewis rats (females, age 8-10 weeks, body weights: 160 to 200 g, Japan Charles River) in groups of 5 each, adjuvant (heat-killed Mycobacterium butyricum)was injected intradermally into the sole of the right hind paw of each rat at 100 µg/0.05 ml/paw to induce arthritis. The rats were orally administered Compound A at 0.1% and Compound B at 0.1%, respectively, by mixing in powdered feed until day 20 taking the day of injection of adjuvant to be day 0. Rats in a control group were given powdered feed only during the same period. The rats were sacrificed on day 21. After excising the right hind paw (the injected paw), soft X-rays were taken of each paw to observe and score the state of bone destruction. Bone destruction was scored by evaluating into 5 ranks consisting of 0, 1, 2, 3 and 4, assigning 0 points in the absence of bone destruction (normal) and increasing scores depending on the state of joint destruction, bone destruction, deformation and osteophyte formation. The worst state of bone destruction was assigned a score of 4. Bone destruction was scored at two locations, the calcaneus and the location extending from the tarsal bones to the metatarsal bones. Thus, the score for each animal was determined by calculating the total score for the two locations and the maximum score was 8 points.

islet β cells = assay: Inhibitory effect on lymphocyte invasion (streptozotocin-induced autoimmunity to islet β cells); format: in vivo, DBA/2 mice; details: for islet cells invaded by lymphocytes in all mice: 0.1% in feed; for Degree of lymphocyte invasion 0 to 40% / Degree of lymphocyte invasion 40 to 60%: percentage of mice within this range, oral, streptozotocin 40 mg/kg i.p. for 5 days
Procedure: Streptozotocin was administered intraperitoneally for 5 days to 8-week-old DBA/2 mice at 40 mg/kg to induce autoimmunity of islet β cells. […] Mice in the control group were given only powdered feed during the same period.
(§1) Blood samples were collected from the tail vein before the start, during and on the final day of streptozotocin administration. The blood samples were centrifuged to obtain plasma, and the glucose levels of the obtained plasma were measured with a glucose analyzer (Sino-Test Co., Ltd.). In the figure, glucose levels (mg/dl) are plotted on the vertical axis, while time (days) is plotted on the horizontal axis. [drawing]
The mice used in the experiment were sacrificed following measurement of glucose levels on the final day of pioglitazone administration. The pancreas of each animal was excised and fixed with bouian solution. Thin tissue slices were prepared from the pancreas and the degree of lymphocyte invasion into islet cells was observed by a light microscope. […] Moreover, the degree of lymphocyte invasion was classified as either 0 to 40% or 40 to 60%. The number of mice classified within each range was illustrated in Table 3 as a percentage (%) relative to the total number of mice in the pioglitazone administration group and control groups.
Streptozotocin was administered intraperitoneally for 5 days to 8-week-old DBA/2 mice at 40 mg/kg to induce autoimmunity of islet β cells. […] Control mice were given only powdered feed during the same period.
as §1, with “(Sinotest).” for “(Sino-Test Co., Ltd.).”
The mice used in the experiment were sacrificed following measurement of glucose levels on the final day of drug administration. The pancreas of each animal was excised and fixed with bouian solution. Thin tissue slices were prepared from the pancreas and the degree of lymphocyte invasion into islet cells was observed by a light microscope. […] Moreover, the degree of lymphocyte invasion of each mouse was classified as either 0 to 40% or 40 to 60%.

ddY mice = format: in vivo; details: 300 mg/kg oral, three ddY mice (males), observed for 5 days
Procedure: Acute toxicity was determined in accordance with conventional methods. […] 2, 3,4 and 10, all acute toxicities of these compounds were determined to be 300 mg/kg and more after oral administration of them.

[1] = Example 2, in powdered feed until day 20: troglitazone 0.2%, pioglitazone 0.05%, BRL-49653 0.005%
[2] = Example 4, from Fig. 3 (plasma glucose levels) and Table 4
[3] = 0.1% in F2 powdered feed (BRL-49653: 125 mg/kg/day, Compound A: 94 mg/kg/day), 31 days
[4] = Example 5, 0.1% in powdered feed until day 20
[5] = 0.2% in F2 powdered feed (236 mg/kg/day), 38 days
[6] = 0.2% in F2 powdered feed (240 mg/kg/day), 38 days

Row | SMILES | inhibition of bone destruction as compared with the control group (Lewis rats; Example 2) | Bone Destruction Score (points) (Lewis rats; [1]) | Bone Destruction Inhibition Rate (%) (Lewis rats; [1]) | islet cells invaded by lymphocytes in all mice (islet β cells; Example 4, 31 days) | onset of autoimmune disease (islet β cells; [2]) | Degree of lymphocyte invasion 0 to 40% (islet β cells; [3]) [%] | Degree of lymphocyte invasion 40 to 60% (islet β cells; [3]) [%] | Bone Destruction Score (points) (Lewis rats; [4]) | Bone Destruction Inhibition Rate (%) (Lewis rats; [4]) | bone destruction compared with the control group (Lewis rats; Example 5) | further results
1 | CN(CCOc1ccc(CC2SC(=O)NC2=O)cc1)c1ccccn1 (centres unmarked) [BRL-49653, 5-{4-[2-(N-methyl-N-(2-pyridyl)amino)ethoxy]benzyl}thiazolidine-2,4-dione] | exhibited inhibition of bone destruction | 4.8 ± 1.2 | 35.1 | less than 40% | suppresses the onset of autoimmune disease | 100 | 0 |  |  |  | 
2 | CC(=NOCCOc1ccc(CC2SC(=O)NC2=O)cc1)c1ccc(-c2ccccn2)cc1 (centres unmarked) [Compound A, 5-[4-[2-[[[1-[4-(2-pyridyl)phenyl]ethylidene]amino]oxy]ethoxy]benzyl]thiazolidine-2,4-dione] |  |  |  | less than 40% | suppresses the onset of autoimmune disease | 100 | 0 | 6.6 ± 0.7 | 17.5 | tended to be inhibited | 
3 | COc1ccc2nc(COc3ccc(CC4SC(=O)NC4=O)cc3)n(C)c2c1 (centres unmarked) [Compound B, 5-[4-(6-methoxy-1-methylbenzimidazol-2-ylmethoxy)benzyl]thiazolidine-2,4-dione] |  |  |  |  |  |  |  | 6.6 ± 0.8 | 17.5 | tended to be inhibited | 
4 | CCc1ccc(CCOc2ccc(CC3SC(=O)NC3=O)cc2)nc1 (centres unmarked) [Pioglitazone, 5-{4-[2-(5-ethyl-2-pyridyl)ethoxy]benzyl}-2,4-thiazolidinedione] | exhibited inhibition of bone destruction | 4.4 ± 1.0 | 40.5 |  |  |  |  |  |  |  | degree of lymphocyte invasion into islet cells in all mice (islet β cells; Example 3, 0.2% in feed (236 mg/kg/day), 38 days): ≤ 40%; onset of autoimmune disease (islet β cells; Example 3, on the basis of Fig. 2 (plasma glucose levels) and Table 3): suppresses the onset of autoimmune disease; Degree of lymphocyte invasion 0 to 40% (islet β cells; [5]): 100%; Degree of lymphocyte invasion 40 to 60% (islet β cells; [5]): 0%
5 | Cc1c(C)c2c(c(C)c1O)CCC(C)(COc1ccc(CC3SC(=O)NC3=O)cc1)O2 (centres unmarked) [Troglitazone, 5-[4-(6-hydroxy-2,5,7,8-tetramethylchroman-2-ylmethoxy)benzyl]thiazolidine-2,4-dione] | significant inhibition of bone destruction | 5.4 ± 0.2 | 27.0 |  |  |  |  |  |  |  | survival (ddY mice): All animals survived; degree of lymphocyte invasion into islet cells in all mice (islet β cells; Example 1, 0.2% in feed (240 mg/kg/day), 38 days): ≤ 40%; onset of autoimmune disease (islet β cells; Example 1, on the basis of Fig. 1 (plasma glucose levels) and Table 1): suppresses the onset of autoimmune disease; Degree of lymphocyte invasion 0 to 40% (islet β cells; [6]): 100%; Degree of lymphocyte invasion 40 to 60% (islet β cells; [6]): 0%
